Measured values from US20180073018A1, “COMPOSITIONS AND METHODS FOR SPECIFIC REACTIVATION OF HIV LATENT RESERVOIR” (priority 2015, published 2018).

Tests used:
HIV-1 LTR promoter [1] = test: dCas9-VPH/msgRNA (or SAHA) reactivation of latent LTR-eLuc reporter in TZM-bI cells; assay type: cell-based
Procedure: Cells were plated in 96-well plate and the indicated MS2-gRNAs were cotransfected by Lipofectamine 3000 (FIG. 3A) or coinfected by lentiviruses (FIG. 3B, MOI=50) with pMSCV-LTR-dCas9-VP64-BFP plus pLV-MS2-p65-HSF1-GFP. Two days later, OneGlo luminescence assay was performed. The SIV MS2-gRNA-D was used as negative control. […] The gRNA-J has no effect due to 2 nucleotides mismatch to the LTR sequence from TZM-bI cells.
FIG. 8A, FIG. 8B, FIG. 8C, and FIG. 8D, depict the results of experiments of screening of MS2-mediated sgRNAs (msgRNAs) targeting the HIV-1 long terminal repeat (LTR) in the dCas9-synergistic activation mediator (SAM) system. FIG. 8A is a schematic illustration of SAM-VPH complex derived from dCas9-VP64 (V) and MS2-p65-HSF1 (PH) with msgRNAs. FIG. 8B is a graph showing similar activation of transfected EcoHIV-eLuc reporter by inducible (TRE) or constitutive (LTR) dCas9-VP64 expression in HEK293T cells. FIG. 8C is a graph showing similar reactivation of latent HIV-LTR-eLuc reporter in TZM-bI cells after either transient plasmid transfection by Lipofectamine 3000 or stable infection by lentivirus. […] The gRNA-J has no effect due to 2 nucleotides mismatch to the LTR sequence from TZM-bI cells. […]
FIG. 9A and FIG. 9B: TZM-bI cells were infected with dCas9-VPH and indicated msgRNA lentiviruses at 1 or 10 MOI and luciferase activity was measured at 2-21 days post-infection (dpi). […]
(§1) FIG. 12A, FIG. 12B, FIG. 12C: The dCas9-VPH stable TZM-bI cells were treated with SAHA or infected with indicated msgRNAs lentivirus for 2-4 d before luminescence reporter assay (FIG. 12A) and CELLTITER-GLO® luminescent cell viability assay (FIG. 12B). […]
Experiments were conducted to compare reactivation of HIV-LTR luciferase reporter in TZM-BI cells induced by gRNA/dCas9-VP64/MS2-p65-HSF1/delivered by either transient plasmid transfection (FIG. 3A) or stable lentivirus infection (FIG. 3B). […] Two days later, OneGlo luminescence assay was performed. […]

HIV-1 LTR promoter [2] = test: HIV-1 EGFP reporter reactivation in latent CHME5 microglial cells; assay type: cell-based; conditions: dCas9-VPH stable CHME5, 500 nM, 4 d
Description: Cells were infected with pMSCV-LTR-dCas9-VP64-puromycin and Lenti-MS2-p65-HSF1-hygromysin, selected for 10 days. The population cells were infected with Lenti-MS2-gRNAs-Zeosin and the fluorescent micrographs were taken at 1 day after infection (FIG. 5B). Cells were continuously cultured for 7 days, and selected with triple antibiotics (puromycin-hygromycin-Zeocin) for 3 days before flow cytometry (FIG. 5C).
FIG. 9A and FIG. 9B: TZM-bI cells were infected with dCas9-VPH and indicated msgRNA lentiviruses at 1 or 10 MOI and luciferase activity was measured at 2-21 days post-infection (dpi). FIG. 9C, FIG. 9D: indicated HIV-1 EGFP reporter T cell lines were infected with dCas9-VPH and indicated msgRNAs lentiviruses at 10 MOI and flow cytometric analysis for EGFP percentage (FIG. 9C) and individual intensity (FIG. 9D) was performed at 1 dpi. […]
as §1
Cells were trypsinized (for CHME5) or collected (for suspension T cell lines), washed with PBS and fixed in 2% paraformaldehyde for 10 minutes at room temperature. Then, cells were washed twice with PBS and analyzed using a Guava EasyCyte Mini flow cytometer (Guava Technologies). […]

## O=C(CCCCCCC(=O)Nc1ccccc1)NO [SAHA, suberoylanilide hydroxamic acid]
HIV-1 LTR promoter [1]; TZM-bI, 500 nM
  activation of LTR-eLuc reporter: did not activate
HIV-1 LTR promoter [1]; TZM-bI, 5,000 nM
  reactivation of LTR-eLuc reporter: 4 fold
HIV-1 LTR promoter [2]
  HIV-1 provirus reactivation (EGFP): marginal increase
